One test has as its target Stromelysin-1 (Homo sapiens, UniProt P08254). The test can be described thus: Inhibition of Stromelysin, matrix metalloprotease-3.
Test [1] has as its target 72 kDa type IV collagenase (Homo sapiens, UniProt P08253). Nature of the test: Inhibition of Gelatinase A, matrix metalloprotease-2.
In test [2] the target is Matrix metalloproteinase-9 (Homo sapiens, UniProt P14780). The test can be described thus: Inhibition of Gelatinase B, matrix metalloprotease-9.
In another test the target is T1, Interstitial collagenase (Homo sapiens, UniProt P03956).
T1 sequence (P03956 whole entry): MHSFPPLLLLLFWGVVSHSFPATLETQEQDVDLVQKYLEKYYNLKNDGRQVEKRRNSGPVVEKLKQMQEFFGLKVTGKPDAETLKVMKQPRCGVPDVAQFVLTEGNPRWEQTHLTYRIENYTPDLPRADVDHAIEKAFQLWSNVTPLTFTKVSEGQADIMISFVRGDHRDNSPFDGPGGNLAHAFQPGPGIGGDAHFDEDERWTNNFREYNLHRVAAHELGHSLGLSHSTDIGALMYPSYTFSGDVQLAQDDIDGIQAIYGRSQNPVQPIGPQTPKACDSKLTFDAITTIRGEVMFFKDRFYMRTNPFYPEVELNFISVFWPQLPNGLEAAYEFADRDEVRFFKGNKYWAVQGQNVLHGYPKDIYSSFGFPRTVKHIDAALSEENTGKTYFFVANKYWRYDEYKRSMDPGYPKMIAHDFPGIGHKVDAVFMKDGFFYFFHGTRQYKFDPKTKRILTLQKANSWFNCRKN
The test can be described thus: Inhibition of Matrix metalloprotease-1.

The target in the next test is T2, Matrilysin (Homo sapiens, UniProt P09237).
T2 sequence (P09237 whole entry): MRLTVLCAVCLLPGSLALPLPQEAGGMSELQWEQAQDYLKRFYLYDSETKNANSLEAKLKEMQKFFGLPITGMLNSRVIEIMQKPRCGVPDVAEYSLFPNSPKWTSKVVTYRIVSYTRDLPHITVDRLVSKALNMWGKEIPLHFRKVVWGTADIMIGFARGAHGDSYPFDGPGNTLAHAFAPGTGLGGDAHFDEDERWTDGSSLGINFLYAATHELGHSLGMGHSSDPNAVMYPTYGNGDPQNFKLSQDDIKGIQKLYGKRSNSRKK
The test can be described thus: Inhibition of matrilysin, Matrix metalloprotease-7.

In the next test the target is Neutrophil collagenase (Homo sapiens, UniProt P22894). Nature of the test: Inhibition of human neutrophil collagenase-I, Matrix metalloprotease-8.

By IC50 is commonly meant the concentration that inhibits the measured activity by half. Higher therefore signals weaker potency.

Matrix metalloproteinase-9, sequence (P14780 whole entry): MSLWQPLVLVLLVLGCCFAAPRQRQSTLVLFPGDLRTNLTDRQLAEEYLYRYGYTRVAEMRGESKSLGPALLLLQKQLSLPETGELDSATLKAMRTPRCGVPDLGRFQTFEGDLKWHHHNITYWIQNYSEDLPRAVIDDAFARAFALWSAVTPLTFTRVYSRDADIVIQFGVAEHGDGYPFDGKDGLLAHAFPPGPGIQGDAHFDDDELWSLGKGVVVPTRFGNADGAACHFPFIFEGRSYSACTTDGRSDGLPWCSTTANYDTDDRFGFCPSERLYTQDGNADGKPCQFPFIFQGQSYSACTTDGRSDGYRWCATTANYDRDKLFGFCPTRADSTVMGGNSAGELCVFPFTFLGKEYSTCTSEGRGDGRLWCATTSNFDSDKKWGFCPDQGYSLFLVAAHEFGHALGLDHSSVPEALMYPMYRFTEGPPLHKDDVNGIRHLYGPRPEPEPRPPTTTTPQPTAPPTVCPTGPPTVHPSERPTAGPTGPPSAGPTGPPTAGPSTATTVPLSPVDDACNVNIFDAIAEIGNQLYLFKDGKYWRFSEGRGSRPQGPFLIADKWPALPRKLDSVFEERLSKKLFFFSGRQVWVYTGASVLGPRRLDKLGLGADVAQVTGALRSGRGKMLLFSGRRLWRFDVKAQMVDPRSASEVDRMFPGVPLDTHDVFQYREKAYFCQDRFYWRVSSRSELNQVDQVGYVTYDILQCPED
72 kDa type IV collagenase, sequence (P08253 whole entry): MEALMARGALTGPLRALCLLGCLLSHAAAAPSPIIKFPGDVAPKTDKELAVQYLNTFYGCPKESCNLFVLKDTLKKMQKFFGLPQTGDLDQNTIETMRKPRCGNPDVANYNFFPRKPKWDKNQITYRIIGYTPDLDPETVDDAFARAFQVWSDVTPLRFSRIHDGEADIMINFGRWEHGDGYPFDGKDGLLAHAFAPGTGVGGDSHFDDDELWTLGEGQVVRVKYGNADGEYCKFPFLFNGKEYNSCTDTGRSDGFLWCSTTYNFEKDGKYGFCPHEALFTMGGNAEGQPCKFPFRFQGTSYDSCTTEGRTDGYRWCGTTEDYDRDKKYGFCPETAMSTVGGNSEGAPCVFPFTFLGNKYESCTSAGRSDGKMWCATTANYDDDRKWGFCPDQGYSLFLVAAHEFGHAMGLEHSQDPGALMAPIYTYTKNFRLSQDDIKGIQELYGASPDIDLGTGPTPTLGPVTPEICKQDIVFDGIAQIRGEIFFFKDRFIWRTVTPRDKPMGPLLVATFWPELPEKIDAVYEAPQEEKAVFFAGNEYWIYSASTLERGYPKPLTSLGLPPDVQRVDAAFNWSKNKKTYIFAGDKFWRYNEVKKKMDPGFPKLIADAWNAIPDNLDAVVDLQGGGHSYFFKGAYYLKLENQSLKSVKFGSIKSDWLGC
Stromelysin-1, sequence (P08254 whole entry): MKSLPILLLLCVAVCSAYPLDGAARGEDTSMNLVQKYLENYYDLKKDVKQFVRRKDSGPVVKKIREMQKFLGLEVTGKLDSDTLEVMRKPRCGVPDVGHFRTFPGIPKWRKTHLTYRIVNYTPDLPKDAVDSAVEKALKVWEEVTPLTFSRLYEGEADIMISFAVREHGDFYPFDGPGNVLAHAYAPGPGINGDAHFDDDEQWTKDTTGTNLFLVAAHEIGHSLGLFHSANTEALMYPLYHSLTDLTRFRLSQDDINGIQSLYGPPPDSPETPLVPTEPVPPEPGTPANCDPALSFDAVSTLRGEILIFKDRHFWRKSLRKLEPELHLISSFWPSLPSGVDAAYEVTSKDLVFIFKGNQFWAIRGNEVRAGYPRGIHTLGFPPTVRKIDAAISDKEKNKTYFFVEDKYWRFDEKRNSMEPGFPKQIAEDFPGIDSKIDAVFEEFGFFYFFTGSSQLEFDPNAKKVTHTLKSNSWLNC
Neutrophil collagenase, sequence (P22894 whole entry): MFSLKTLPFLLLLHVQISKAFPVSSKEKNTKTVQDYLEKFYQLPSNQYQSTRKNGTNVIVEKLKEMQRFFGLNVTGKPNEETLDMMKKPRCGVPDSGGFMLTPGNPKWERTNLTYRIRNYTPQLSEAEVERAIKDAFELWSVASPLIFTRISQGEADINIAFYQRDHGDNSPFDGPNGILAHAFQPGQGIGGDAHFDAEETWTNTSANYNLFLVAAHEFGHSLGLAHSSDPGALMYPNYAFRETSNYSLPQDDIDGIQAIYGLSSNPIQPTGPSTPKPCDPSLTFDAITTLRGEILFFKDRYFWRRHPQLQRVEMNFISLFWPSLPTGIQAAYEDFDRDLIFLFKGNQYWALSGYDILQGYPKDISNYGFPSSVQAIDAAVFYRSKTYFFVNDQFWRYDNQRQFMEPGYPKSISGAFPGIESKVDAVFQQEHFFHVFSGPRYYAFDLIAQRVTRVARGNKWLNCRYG

Consider `CCCCCCCCOc1ccc(CC2(C)C(=O)NC(=O)NC2=O)cc1`, for which the IC50 is 1000 nM against Stromelysin-1; 530 nM in test [1]; 164 nM in test [2]; above 2000 nM against Interstitial collagenase; above 50000 nM against Matrilysin.

As for `CCCCCCC1(c2ccc(-c3ccccc3)cc2)C(=O)NC(=S)NC1=O`, the IC50 in test [1] is 13000 nM; in test [2], 12000 nM; against Interstitial collagenase, above 2000 nM; on Matrilysin it was above 50000 nM.

Take `O=C1NC(=O)C(CCO)(c2ccc(Oc3ccccc3)cc2)C(=O)N1`: the IC50 against Interstitial collagenase is above 2000 nM; on Matrilysin, above 50000 nM.

Take `O=C1NC(=O)C(COCc2ccccc2)(c2ccc(Oc3ccccc3)cc2)C(=O)N1`: the IC50 against Stromelysin-1 is 930 nM; in test [1], 19 nM; in test [2] it was 17 nM; against Interstitial collagenase, above 2000 nM; at Matrilysin, above 50000 nM.

Consider `CCCCCCC1(c2ccc(-c3ccccc3)cc2)C(=O)NC(=O)NC1=O`, for which the half-maximal inhibitory concentration (IC50) in test [1] was 868 nM; in test [2], 863 nM; against Interstitial collagenase it was above 2000 nM; against Matrilysin it was above 50000 nM.

In the case of `CCCCCCC1(c2ccccc2)C(=O)NC(=O)NC1=O`, the IC50 was 30000 nM at Stromelysin-1; 1300 nM in test [1]; 330 nM in test [2]; above 2000 nM against Interstitial collagenase; above 50000 nM against Matrilysin.

Regarding `CC1(c2ccc(Oc3ccccc3)cc2)C(=O)NC(=O)NC1=O`, the IC50 against Stromelysin-1 is 2000 nM; in test [1], 81 nM; on Interstitial collagenase, above 2000 nM; at Matrilysin, above 50000 nM; against Neutrophil collagenase, 81 nM.

In the case of `CCCCCCC1(c2ccc(Oc3ccccc3)cc2)C(=O)NC(=O)NC1=O`, the IC50 against Stromelysin-1 was 2000 nM; in test [1], 21 nM; in test [2] it was 18 nM; at Interstitial collagenase, above 2000 nM; at Matrilysin it was above 50000 nM; at Neutrophil collagenase, 130 nM.

As for `CCC1(c2ccc(-c3ccccc3)cc2)C(=O)NC(=O)NC1=O`, the half-inhibitory concentration (IC50) against Stromelysin-1 was 9000 nM; in test [1], 898 nM; in test [2], 696 nM; against Interstitial collagenase, above 2000 nM; against Matrilysin, above 50000 nM.

With `CN1C(=O)NC(=O)C(C)(c2ccc(Oc3ccccc3)cc2)C1=O` (stereo not drawn), the 50% inhibitory concentration (IC50) in test [1] is above 50000 nM; in test [2] it was above 50000 nM; at Interstitial collagenase it was above 2000 nM; against Matrilysin it was above 50000 nM.

As for `O=C1NC(=O)C(c2ccc(Oc3ccccc3)cc2)C(=O)N1`, the IC50 was 9000 nM in test [1], 14000 nM in test [2], above 2000 nM on Interstitial collagenase and above 50000 nM against Matrilysin.

For `CC1(c2ccccc2)C(=O)NC(=O)NC1=O`, the IC50 in test [1] was 50000 nM; in test [2], 11000 nM; against Interstitial collagenase it was above 2000 nM; on Matrilysin, above 50000 nM.

Values taken from ChEMBL document CHEMBL1134035, “Novel 5,5-disubstitutedpyrimidine-2,4,6-triones as selective MMP inhibitors” (Bioorg Med Chem Lett, 2001).
